Measured values as given in publication PMC8067314, “Uptake of Vitamins D2, D3, D4, D5, D6, and D7 Solubilized in Mixed Micelles by Human Intestinal Cells, Caco-2, an Enhancing Effect of Lysophosphatidylcholine on the Cellular Uptake, and Estimation of Vitamins D’ Biological Activities” (Nutrients, 2021).
Read-outs that look alike come from different tables or passages of the source.

Experiments:
rats = conditions: cited from earlier work
dispersed Caco-2 cells = assay: Uptake of vitamin D from mixed micelles by dispersed Caco-2 cells; format: in vitro ADME, human; conditions: NoPC mixed micelles, 2 h, cells dispersed with trypsin; compared among vitamins D2–D7
Excerpt: Since 2001, we have reported that lysophospholipids enhance the uptake of micellar carotenoids in Caco-2 cells. […] In the present study, using the same method, we examined whether the mechanism for the enhancing effect of lysophosphatidylcholine could be adapted to vitamin D, as well. To evaluate the impact of the degree of cell-cell adhesion/cell-matrix adhesion on vitamin D uptake by cells, we prepared in two different ways: i) dispersed Caco-2 cells without cell-cell adhesion/cell-matrix adhesion and ii) Caco-2 cells with insufficient cell-cell adhesion.
(i): The dispersed cells were prepared by trypsin treatment. After collecting the cells in the culture medium, the number of cells was counted and diluted with the medium. The cells were washed two times with FBS-free DMEM and then seeded in culture plate of 24-well for suspension cultures (SC plate; Greiner Bio-One, Frickenhausen, Germany) at a density of 15 × 10^4 cells per well containing the FBS-free DMEM (0.5 mL).
Subsequent operations are common to the two models of cells. The medium consisting of mixed micellar vitamin D (0.5 mL) was added to adhered cells or dispersed cells in individual wells containing FBS-free DMEM (0.5 mL), resulting in a total medium volume of 1.0 mL/well, and the final start concentrations of mixed micellar components were one-half the initial concentration. The cells were incubated in the same conditions as described above, i.e., in a CO2 incubator at 37 °C for 2 h, and then the cells were washed with 2 mM taurocholate/PBS, followed by two times with PBS. The vitamin D uptake and residual mixed micellar vitamin D were evaluated as the previous subsection, but the filtrate of residual mixed micellar vitamin D was diluted with a 2x-volume of H2O. The cellular protein content was also determined as above.

[1] = molecular target: T1, Niemann-Pick C1-like 1 (NPC1L1) (Homo sapiens, UniProt Q9UHC9); assay: Inhibitory effect of ezetimibe on vitamin D uptake by differentiated Caco-2 cells (facilitated diffusion); format: in vitro ADME; conditions: 150 μM ezetimibe pretreatment 2 h
T1 construct: host or cells: differentiated Caco-2 cells
T1 sequence (Q9UHC9 22-1359): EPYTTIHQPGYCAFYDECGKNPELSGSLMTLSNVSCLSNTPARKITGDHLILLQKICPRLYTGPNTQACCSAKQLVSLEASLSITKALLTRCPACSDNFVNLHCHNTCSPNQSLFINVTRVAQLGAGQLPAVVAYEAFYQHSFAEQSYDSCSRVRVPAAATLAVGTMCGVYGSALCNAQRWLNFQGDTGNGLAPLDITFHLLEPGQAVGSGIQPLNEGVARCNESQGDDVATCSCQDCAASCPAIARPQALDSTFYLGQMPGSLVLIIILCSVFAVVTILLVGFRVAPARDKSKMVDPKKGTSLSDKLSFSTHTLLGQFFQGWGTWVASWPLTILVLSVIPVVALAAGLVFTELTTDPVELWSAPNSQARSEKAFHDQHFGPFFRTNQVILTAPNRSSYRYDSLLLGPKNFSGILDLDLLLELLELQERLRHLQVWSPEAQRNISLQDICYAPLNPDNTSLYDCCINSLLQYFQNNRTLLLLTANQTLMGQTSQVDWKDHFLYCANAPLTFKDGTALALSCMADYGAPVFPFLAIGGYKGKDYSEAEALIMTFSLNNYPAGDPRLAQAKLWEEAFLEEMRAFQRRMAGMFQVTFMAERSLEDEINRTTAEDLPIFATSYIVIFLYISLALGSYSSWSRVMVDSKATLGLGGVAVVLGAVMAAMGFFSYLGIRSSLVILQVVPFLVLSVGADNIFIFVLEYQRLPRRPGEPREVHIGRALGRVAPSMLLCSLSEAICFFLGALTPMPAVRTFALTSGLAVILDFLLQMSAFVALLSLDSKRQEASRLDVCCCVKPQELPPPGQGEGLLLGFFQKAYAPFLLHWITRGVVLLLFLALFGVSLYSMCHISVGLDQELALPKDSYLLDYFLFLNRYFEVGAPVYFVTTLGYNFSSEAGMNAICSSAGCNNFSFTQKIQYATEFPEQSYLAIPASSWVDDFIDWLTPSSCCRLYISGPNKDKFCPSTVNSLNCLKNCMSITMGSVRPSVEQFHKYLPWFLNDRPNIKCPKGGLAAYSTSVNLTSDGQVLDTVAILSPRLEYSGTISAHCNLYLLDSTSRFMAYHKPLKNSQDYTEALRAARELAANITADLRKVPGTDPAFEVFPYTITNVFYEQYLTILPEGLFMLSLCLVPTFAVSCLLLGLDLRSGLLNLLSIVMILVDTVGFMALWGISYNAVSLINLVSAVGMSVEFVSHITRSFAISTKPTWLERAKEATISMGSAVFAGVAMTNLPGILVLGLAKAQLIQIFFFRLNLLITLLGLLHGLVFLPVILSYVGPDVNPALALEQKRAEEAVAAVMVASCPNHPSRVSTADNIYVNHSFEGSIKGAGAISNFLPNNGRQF
Procedure: In the present study, we evaluated the involvement of facilitated diffusion in the cellular uptake of each mixed micellar vitamin D2–D7 by using ezetimibe, an inhibitor of the protein Niemann-Pick C1-like 1 (NPC1L1). Ezetimibe was dissolved in dimethyl sulfoxide (DMSO), and then was added at a final concentration of 150 μM to the culture medium. At this time, the final concentration of DMSO was 1.5% (v/v). The differentiated Caco-2 cells were preincubated at 37 °C for 2 h with ezetimibe-containing culture medium (0.5 mL). The cells were washed two times with FBS-free DMEM (0.5 mL) and then treated with the medium containing mixed micellar vitamin D (0.5 mL) for 2 h, as described above. After treatment, cellular vitamin D, residual mixed micellar vitamin D, and the cellular protein content were evaluated as described in the previous subsection.

[2] = system: differentiated Caco-2 cells; assay: Uptake of vitamin D solubilized in mixed micelles by differentiated Caco-2 cells; format: in vitro ADME, human; conditions: 2 h; for Vitamin D uptake by differentiated Caco-2 cells: vitamin D 1 μM, compared among vitamins D2–D7
Procedure: Caco-2 cells were purchased from the American Type Culture Collection (Rockville, MD, USA). DMEM containing 10% FBS, 4 mM L-glutamine, penicillin and streptomycin (40 units/mL and 40 μg/mL, respectively), and nonessential amino acids (0.1 mM) were used as the culture medium. The cells were grown in the culture medium at 37 °C in a humidified atmosphere of 5% CO2 in air and then were cultured by passaging two times per week. We used differentiated Caco-2 cells, which have been widely used as a human intestinal model, for vitamin D uptake experiments. To induce differentiation of Caco-2 cells, the cells were seeded in culture plate of 24-well at a density of 5 × 10^4 cells per well containing 0.5 mL of the culture medium. Then, the medium was changed with fresh medium two times per week for 20–22 d. We have previously reported that the cell monolayers obtained by this method had sufficient cell-cell adhesion.
The mixed micelles were prepared as described in our previous reports. All of the components, i.e., taurocholate, monoolein, oleic acid, lysophosphatidylcholine, and vitamin D, were dissolved in an appropriate solvent. Portions of these solvent solutions were moved to glass tubes. The solvent was dried up with argon gas and further centrifugal evaporator. The dry matter was dispersed into FBS-free DMEM (same as the culture medium described above but without FBS). To remove any vitamin D not solubilized in the micelles, the resulting solution was passed through a filter (the pore size was 0.2-μm). The materials of mixed micelle and their concentrations were taurocholate (2 mM), monoolein (100 μM), oleic acid (33 μM), lysophosphatidylcholine (0 or 50 μM), and vitamin D (1 μM), respectively, unless otherwise stated. The concentrations were same as those used in our previous study. […] One part of the mixed micelles was diluted with four parts of methylene chloride/methyl alcohol (1:4, v/v), and then a portion (30 μL) was analyzed by high-pressure liquid chromatography (HPLC) as explained in the “2.8. […]

[3] = system: differentiated Caco-2 cells; assay: Cellular cholesterol in differentiated Caco-2 cells treated with mixed micelles containing lysophosphatidylcholine; format: cell-based, human; conditions: 2 h, no vitamin D
Procedure: The saponification reaction was performed as follows. A portion (0.8 mL) of the cell homogenate was mixed with 200 μL of 40 μM β-sitosterol/ethyl alcohol as an internal standard, 85 μL of 10 M KOH, and 0.6 mL ethyl alcohol and then incubated at 60 °C for 2 h under argon gas. After cooling the reaction solution, cholesterol was extracted with ethyl acetate and n-hexane in the same manner as the extraction of vitamin D described above. The extract was additionally washed with 0.8 mL H2O before the solvent completely dried and then dissolved in 200 μL of methylene chloride/methyl alcohol/H2O (9:81:10, v/v/v). An aliquot (40 μL) was then subjected to HPLC as described in the “2.8. HPLC Analysis” subsection below. The cellular protein content was also determined as above.
Vitamin D and cholesterol were analyzed by using the HPLC system and columns which were the same as in our previous report. Mobile phase X was ethanenitrile/methyl alcohol/H2O (75:15:10, v/v/v), mobile phase Y was methyl alcohol/ethyl acetate (70:30, v/v), and mobile phase Z was methyl alcohol/isopropyl alcohol (70:30, v/v). These mobile phases contained 0.1% ammonium acetate. […] Vitamin D and cholesterol were quantified from the peak area at 265 nm and 210 nm, respectively, by using the respective calibration curve of the authentic standard.

C=C1CCC(O)C/C1=C/C=C1\CCCC2(C)C1CCC2C(C)/C=C/C(CC)C(C)C (stereo not drawn) [Vitamin D6]
Anti-rickets activity (rats; UV-irradiated precursors): little or no activity
Vitamin D uptake by dispersed Caco-2 cells (dispersed Caco-2 cells): higher than those of vitamins D2 and D3

C=C1CCC(O)C/C1=C/C=C1\CCCC2(C)C1CCC2C(C)CC[C@H](C)C(C)C (stereo partly drawn) [Vitamin D4]
Anti-rickets activity as percentage of that of vitamin D2 (rats; line test, crystal): 50–75%
Vitamin D uptake by dispersed Caco-2 cells (dispersed Caco-2 cells): higher than those of vitamins D2 and D3

O=C1[C@H](CC[C@H](O)c2ccc(F)cc2)[C@@H](c2ccc(O)cc2)N1c1ccc(F)cc1 [ezetimibe]
Vitamin-D3 uptake blocked by ezetimibe [1]: 20–30%
inhibition at 150 µM ([1]; relative to vehicle control, NoPC and lysoPC mixed micelles, read-out: Inhibition of the uptakes of vitamins D2–D7 by ezetimibe): ~20%

C=C1CC[C@H](O)C/C1=C/C=C1\CCC[C@]2(C)[C@@H]([C@H](C)CCCC(C)C)CC[C@@H]12 [Vitamin D3]
Anti-rickets activity, comparison of vitamins D (rats; line test, vitamins D provided as a crystal): highest activities and were similar

C=C1CCC(O)C/C1=C/C=C1\CCCC2(C)C1CCC2C(C)CC[C@@H](C)C(C)C (stereo partly drawn) [Vitamin D7]
Anti-rickets activity relative to that of vitamin D2 (rats; UV-irradiated precursors): 1/10
Vitamin D uptake by dispersed Caco-2 cells (dispersed Caco-2 cells): higher than those of vitamins D2 and D3

C=C1CCC(O)C/C1=C/C=C1\CCCC2(C)C1CCC2C(C)CCC(CC)C(C)C (stereo not drawn) [Vitamin D5]
Anti-rickets activity relative to that of vitamin D2 (rats; UV-irradiated precursors, not crystals): 1/70
Anti-rickets activity relative to that of vitamins D2 and D3 as UV irradiation precursors (rats; UV-irradiated precursors): 1/40
Anti-rickets activity relative to that of vitamin D3 (rats; line test, crystal): 1/180
Vitamin D uptake by dispersed Caco-2 cells (dispersed Caco-2 cells): no tendency toward decreased vitamin-D5 uptake
Vitamin D uptake by differentiated Caco-2 cells ([2]; NoPC mixed micelles (without lysophosphatidylcholine)): lower by vitamin D5 than by other vitamins D
Vitamin D uptake by differentiated Caco-2 cells ([2]; lysoPC mixed micelles (lysophosphatidylcholine 50 μM)): tended to be lower than that of other vitamins D

CCCCCCCCCCCCCCCC(=O)OC[C@@H](O)COP(=O)([O-])OCC[N+](C)(C)C [lysophosphatidylcholine, 1-16:0-2-OH-sn-glycerol-3-phosphocholine]
Effect on cellular cholesterol amounts ([3]; lysophosphatidylcholine at <100 μM in mixed micelles): tended to decrease the cellular cholesterol, but the decrease was not significant
Effect on cellular cholesterol amounts ([3]; lysophosphatidylcholine at >150 μM in mixed micelles): significantly decreased the cellular cholesterol
Enhancement of vitamin D uptake by lysophosphatidylcholine compared with NoPC ([2]; differentiated Caco-2 cells, lysophosphatidylcholine 50 μM in mixed micelles, average for six vitamin D species): 2.5 times
